Measured values from ChEMBL document CHEMBL1124356, “Active reduced-size hexapeptide analogues of luteinizing hormone-releasing hormone” (J Med Chem, 1989).

Assays:
[1] = molecular target: Gonadotropin-releasing hormone receptor (Rattus norvegicus) (UniProt P30969); assay: Luteinizing hormone inhibiting potency in rats is expressed as negative logarithm of the concentration (antagonist); conditions: read-out: pA2 (converted)
[2] = molecular target: T1, Gonadotropin-releasing hormone receptor (Rattus norvegicus, UniProt P30969); assay: In vitro binding affinity towards […] from rat pituitary cells is expressed as negative logarithm of the equilibrium dissociation constant; type: cell-based, Pituitary gland cell
T1 sequence (P30969 whole entry): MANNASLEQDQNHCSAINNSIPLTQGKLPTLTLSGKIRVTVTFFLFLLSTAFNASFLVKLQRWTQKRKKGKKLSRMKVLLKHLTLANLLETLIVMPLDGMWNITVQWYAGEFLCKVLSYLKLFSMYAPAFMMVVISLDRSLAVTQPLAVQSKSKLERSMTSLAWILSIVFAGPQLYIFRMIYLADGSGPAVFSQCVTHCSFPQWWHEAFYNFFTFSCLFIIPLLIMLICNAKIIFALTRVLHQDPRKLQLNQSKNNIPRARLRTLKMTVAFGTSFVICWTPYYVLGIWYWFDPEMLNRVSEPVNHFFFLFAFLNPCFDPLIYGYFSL

Kb [1] [nM]	Ki [2] [nM]	SMILES
57.5		CCNC(=O)[C@@H]1CCCN1C(=O)[C@H](CCCN=C(N)N)NC(=O)[C@H](CC(C)C)NC(=O)[C@@H](Cc1c[nH]c2ccccc12)NC(=O)[C@H](Cc1ccc(O)cc1)NC(=O)[C@H](CO)NC(=O)[C@@H](N)Cc1c[nH]c2ccccc12
	50.1	CCNC(=O)[C@@H]1CCCN1C(=O)[C@H](CCCN=C(N)N)NC(=O)[C@H](CC(C)C)NC(=O)[C@@H](CC(C)C)NC(=O)[C@H](Cc1ccc(O)cc1)NC(=O)[C@H](CO)NC(=O)[C@@H](N)Cc1cccc2ccccc12
871		CCNC(=O)[C@@H]1CCCN1C(=O)[C@H](CCCN=C(N)N)NC(=O)[C@H](CC(C)C)NC(=O)[C@@H](CC(C)C)NC(=O)[C@H](Cc1ccc(O)cc1)NC(=O)[C@H](CO)NC(=O)[C@@H](N)Cc1c[nH]c2ccccc12
